In article PMC5845353, “The selective cathepsin K inhibitor MIV-711 attenuates joint pathology in experimental animal models of osteoarthritis” (Journal of Translational Medicine, 2018):
Several values for one entry are separate records, joined by “and”; a condition that tells them apart may be missing. Identical values can stand only once.

Tested on: dogs subjected to partial medial meniscectomy
Test: Dog partial medial meniscectomy study, microscopic cartilage degeneration scores
Format: in vivo
Parameters: key to Total Joint CD Score: sum of tibial and femoral degeneration scores (1=minimal…3=moderate)
Text: The proximal end of the left tibia and the distal end of the left femur were removed using a hacksaw and collected into 10% neutral buffered formalin. Bones were allowed to fix for 5 days and then the tissues were placed in formic acid decalcifier (5-20%). After decalcification, the surface area at risk for lesion development of the tibia (medial and lateral plateaus) and femur (medial and lateral condyles) was divided into 3 slabs (anterior to posterior) approximately 2-4 mm thick for processing, embedding, sectioning (8 µm) and staining (Toluidine Blue). The lesions are in reasonably consistent locations in all animals, therefore, the same surfaces and area were consistently embedded for all animals. Blocks containing tissue were numbered 1-3 with 1 being the most anterior piece. In all cases, the anterior aspect of the tissue was embedded down in the cassette for sectioning.
Compartmentalized lesions on medial tibia and medial femur (cartilage degeneration and osteophytes) were scored for each of the 3 (anterior to posterior) sections using the following system:
1=minimal degeneration, chondrocyte and proteoglycan loss with or without fibrillation involving the superficial zone or extending into the upper 10% of the cartilage thickness or at least 5% but not more than 10% overall total proteoglycan and cell loss in the zone if lesion is focal and deeper in some areas. Deeper and more extensive proteoglycan loss only without any evidence of chondrocyte loss and collagen damage is also given a score of 1 as this is a minor and reversible change
2=mild degeneration, chondrocyte and proteoglycan loss with fibrillation involving mainly the upper 11-25% of cartilage thickness, fibrillation generally superficial (upper 10%) while chondrocyte and proteoglycan loss extend into approximately 11-25% of the cartilage depth, or 11-25% overall chondrocyte and proteoglycan loss in the zone if lesion is focal and deeper in some areas. Deeper areas of proteoglycan loss only, without chondrocyte loss or collagen disruption (reversible changes) may be present
3=moderate degeneration, chondrocyte and proteoglycan loss with fibrillation extending well into the midzone and generally affecting 1/2 (50%) of the total cartilage thickness, fibrillation/collagen damage generally extends into upper 25% while chondrocyte and proteoglycan loss extend through 50% thickness, or 26-50% overall chondrocyte and proteoglycan loss in the zone if lesion is focal and deeper in some areas. Deeper areas of proteoglycan loss only, without chondrocyte loss or collagen disruption (reversible changes) may be present
4=marked degeneration, chondrocyte and proteoglycan loss with fibrillation extending through the mid zone through 3/4 f the depth (51-75% of cartilage thickness) but without complete (to the tidemark) loss of chondrocytes or proteoglycan, fibrillation/collagen damage generally extend through the mid zone (50% thickness) but deep zone collagen remains intact, or 51-75% overall chondrocyte and proteoglycan loss in the zone if lesion is focal and deeper in some areas. Deeper areas of proteoglycan loss only, without chondrocyte loss or collagen disruption (reversible changes) may be present
5=severe degeneration, chondrocyte and proteoglycan loss to near tidemark (76-100% of depth) with slightly less severe collagen damage or 76-100% overall chondrocyte and proteoglycan loss in the zone.
Each medial tibial plateau and medial femoral condyle anterior to posterior section was further divided visually with an ocular micrometer into fourths and numbered 1,2,3,4 with 1 being the outside and 4 being the inside quadrant. A mean score for the four levels was calculated. In addition, means of the 3 sections for each quadrant were determined in order to convey lesion severity in various axial to abaxial locations. Overall tibial and femoral values were summed for a total joint cartilage degeneration score.

[1] = individual dogs of MIV-711 group
[2] = individual dogs of MIV-711 group, score=depth (1-5), mean of 4 quadrants

With C#C[C@@H]1CN(C(=O)[C@H](CC(C)C)NC(=O)c2ccc(-c3nc(N4CCN(C)CC4)sc3F)cc2)[C@@H]2C(=O)CO[C@H]12 [MIV-711] the “Femur Cartilage Degeneration Score Level 1” value (MIV-711 group mean) was 0.57, the “Femur Cartilage Degeneration Score Level 2” value (MIV-711 group mean) was 0.65 and the “Femur Cartilage Degeneration Score Level 3” value (MIV-711 group mean) was 0.77. For the same molecule, the “Femur Cartilage Degeneration Score Mean” value (MIV-711 group mean) was 0.66, the “Femur Cartilage Degeneration Score Zone 1” value (MIV-711 group mean) was 1.16 and the “Femur Cartilage Degeneration Score Zone 2” value (MIV-711 group mean) was 1.09. For the same molecule, the “Femur Cartilage Degeneration Score Zone 3” value (MIV-711 group mean) was 0.33, the “Femur Cartilage Degeneration Score Zone 4” value (MIV-711 group mean) was 0.07 and the “Tibia Cartilage Degeneration Score Level 1” value (MIV-711 group mean) was 0.60. For the same molecule, the “Tibia Cartilage Degeneration Score Level 2” value (MIV-711 group mean) was 1.22, the “Tibia Cartilage Degeneration Score Level 3” value (MIV-711 group mean) was 0.92 and the “Tibia Cartilage Degeneration Score Mean” value (MIV-711 group mean) was 0.91. For the same molecule, the “Tibia Cartilage Degeneration Score Zone 1” value (MIV-711 group mean) was 0.33, the “Tibia Cartilage Degeneration Score Zone 2” value (MIV-711 group mean) was 1.76 and the “Tibia Cartilage Degeneration Score Zone 3” value (MIV-711 group mean) was 1.02. The “Tibia Cartilage Degeneration Score Zone 4” value (MIV-711 group mean) was 0.53, the “Total Joint CD Score” value (MIV-711 group mean) was 1.57 and the “% inhibition, Femur Cartilage Degeneration Score Level 1” value (MIV-711 group vs vehicle) was 13%. The “% inhibition, Femur Cartilage Degeneration Score Level 2” value (MIV-711 group vs vehicle) was 0%, the “% inhibition, Femur Cartilage Degeneration Score Level 3” value (MIV-711 group vs vehicle) was 8% and the “% inhibition, Femur Cartilage Degeneration Score Mean” value (MIV-711 group vs vehicle) was 7%. For the same molecule, the “% inhibition, Femur Cartilage Degeneration Score Zone 1” value (MIV-711 group vs vehicle) was -6%, the “% inhibition, Femur Cartilage Degeneration Score Zone 2” value (MIV-711 group vs vehicle) was 6% and the “% inhibition, Femur Cartilage Degeneration Score Zone 3” value (MIV-711 group vs vehicle) was 32%. The “% inhibition, Femur Cartilage Degeneration Score Zone 4” value (MIV-711 group vs vehicle) was 40%, the “% inhibition, Tibia Cartilage Degeneration Score Level 1” value (MIV-711 group vs vehicle) was 41% and the “% inhibition, Tibia Cartilage Degeneration Score Level 2” value (MIV-711 group vs vehicle) was 9%. For the same molecule, the “% inhibition, Tibia Cartilage Degeneration Score Level 3” value (MIV-711 group vs vehicle) was -38%, the “% inhibition, Tibia Cartilage Degeneration Score Mean” value (MIV-711 group vs vehicle) was 9% and the “% inhibition, Tibia Cartilage Degeneration Score Zone 1” value (MIV-711 group vs vehicle) was 48%. The “% inhibition, Tibia Cartilage Degeneration Score Zone 2” value (MIV-711 group vs vehicle) was 0%, the “% inhibition, Tibia Cartilage Degeneration Score Zone 3” value (MIV-711 group vs vehicle) was 8% and the “% inhibition, Tibia Cartilage Degeneration Score Zone 4” value (MIV-711 group vs vehicle) was -4%. For the same molecule, the “% inhibition, Total Joint CD Score” value (MIV-711 group vs vehicle) was 8%, the “decrease in cartilage degeneration scores in level 1 (anterior) of the tibia” value (dog, 30 µmol/kg vs vehicle, statistically significant) was 41% and the “Femur Cartilage Degeneration Score Zone 1” value [1] was 1.00 and 0.33 and 2.00 and 1.33 and 0.67. The “Femur Cartilage Degeneration Score Zone 2” value [1] was 1.33 and 1.67 and 0.00 and 2.00 and 1.00 and 0.33 and 2.33, the “Femur Cartilage Degeneration Score Zone 3” value [1] was 0.33 and 0.00 and 1.33 and 1.67 and the “Femur Cartilage Degeneration Score Zone 4” value [1] was 0.00 and 0.33. The “Tibia Cartilage Degeneration Score Zone 1” value [1] was 0.33 and 0.67 and 0.00 and 1.00, the “Tibia Cartilage Degeneration Score Zone 2” value [1] was 1.67 and 1.33 and 2.00 and 2.33 and the “Tibia Cartilage Degeneration Score Zone 3” value [1] was 1.33 and 1.00 and 1.67 and 0.67 and 0.33. The “Tibia Cartilage Degeneration Score Zone 4” value [1] was 0.67 and 0.33 and 0.00 and 1.00, the “Total Joint CD Score” value [1] was 1.08 and 1.67 and 1.75 and 0.75 and 2.42 and 1.33 and 1.50 and 1.25 and 2.00 and 1.83 and 3.00 and the “Femur Cartilage Degeneration Score Level 1” value [2] was 0.50 and 0.25 and 0.75 and 1.00. The “Femur Cartilage Degeneration Score Level 2” value [2] was 0.50 and 1.00 and 0.00 and 1.75 and 0.75 and 0.25, the “Femur Cartilage Degeneration Score Level 3” value [2] was 0.50 and 1.00 and 0.00 and 1.50 and 0.25 and 1.25 and 0.75 and 2.00 and the “Femur Cartilage Degeneration Score Mean” value [2] was 0.50 and 0.67 and 0.83 and 0.08 and 1.33 and 0.58 and 0.33 and 0.25 and 1.58. For the same molecule, the “Tibia Cartilage Degeneration Score Level 1” value [2] was 0.25 and 0.00 and 0.50 and 1.25 and 0.75 and 1.00 and 1.50, the “Tibia Cartilage Degeneration Score Level 2” value [2] was 1.00 and 1.25 and 1.75 and 1.50 and 0.50 and the “Tibia Cartilage Degeneration Score Level 3” value [2] was 0.50 and 1.50 and 1.00 and 1.25 and 0.75 and 0.00. For the same molecule, the “Tibia Cartilage Degeneration Score Mean” value [2] was 0.58 and 1.00 and 0.92 and 0.67 and 1.08 and 0.75 and 1.17 and 0.42 and 1.42.
